# Test results: US11300570B2, “Therapeutic and diagnostic methods for cancer” (Genentech, Inc., priority 2016, dated 2022)
# Test system: locally advanced or metastatic NSCLC (PD-L1-unselected patients)
# Test: POPLAR Phase II randomized trial, atezolizumab vs docetaxel, in 2L+ PD-L1-unselected NSCLC, efficacy by tTMB
# Format: in vivo, human
# Conditions: POPLAR; for OS HR (95% CI) / PFS HR (95% CI): atezolizumab vs docetaxel
# From the text: Patients were eligible for enrollment in the POPLAR study if they had locally advanced or metastatic (e.g., stage IIIB, stage IV, or recurrent) NSCLC; disease progression during or following treatment with a prior platinum-containing regimen for locally advanced, unresectable/inoperable, or metastatic NSCLC, or disease recurrence within 6 months of treatment with a platinum-based adjuvant/neoadjuvant regimen; measurable disease, as defined by RECIST v1.1; and an ECOG performance status of 0 or 1. Participants were randomized to receive either atezolizumab at a dose of 1200 mg intravenously every three weeks or docetaxel 75 mg per meter square (mg/m^2) intravenously every three weeks. Treatment with atezolizumab could be continued as long as participants were experiencing clinical benefit, i.e., in the absence of unacceptable toxicity or symptomatic deterioration attributed to disease progression. Pre-treatment tumor samples from patients in the Phase III OAK trial (Clinical Trial ID No.: NCT02008227) were also evaluated for tTMB. Patients were eligible for enrollment in the OAK study if they had locally advanced or metastatic (e.g., stage IIIB, stage IV, or recurrent) NSCLC; disease progression during or following treatment with a prior platinum-containing regimen for locally advanced, unresectable/inoperable, or metastatic NSCLC, or disease recurrence within 6 months of treatment with a platinum-based adjuvant/neoadjuvant regimen; measurable disease, as defined by RECIST v1.1; and an ECOG performance status of 0 or 1. Participants were randomized to receive either atezolizumab at a dose of 1200 mg intravenously every three weeks or docetaxel 75 mg per square meter (mg/m^2) intravenously every three weeks. Treatment with atezolizumab could be continued as long as participants were experiencing clinical benefit, i.e., in the absence of unacceptable toxicity or symptomatic deterioration attributed to disease progression.
# Data from the single-arm, PD-L1-selected trials BIRCH and FIR were combined and analyzed to examine the association between tTMB and clinical outcomes among PD-L1-selected patients. Data from the randomized, PD-L1-unselected trial, POPLAR, were analyzed separately and treatment effects between the atezolizumab- and docetaxel-treatment arms were compared.
# To identify somatic mutations, tumor samples (e.g., archival tumor samples) were processed as described in Frampton et al. Nat. Biotechnol. 31:1023-31, 2013. Sequencing libraries were constructed to sequence and analyze samples. In addition to standard mutation processing, a mutation load estimation algorithm was applied that, based on the number of somatic mutations and/or rearrangements detected in Table 1 or Table 2, respectively, extrapolates to the exome or the genome as a whole. For purposes of mutation load estimation, all coding short variant alterations, base substitutions, and indels detected in the genes listed in Table 1 and Table 2 were counted. Further, all coding alterations (base substitutions and indels), including synonymous alterations, with the exception of known oncogenic driver mutations, in the genes listed in Table 1 and Table 2 were counted. However, numerous classes of detected alterations were not counted: non-coding alterations; alterations with known (occurring as known somatic alterations in the COSMIC database (Forbes et al. (2014) Nucl. Acids Res. 43:D805-11) and likely (truncations in tumor suppressor genes) functional status; known germline alterations in the dbSNP database (Sherry et al. (2001) Nucleic Acids Res. 29(1):308-11); germline alterations occurring with two or more counts in the ExAC database (Exome Aggregation Consortium (ExAC), Cambridge, Mass.); alterations that are predicted to be germline in the specimen being assessed; and alterations that are predicted to be germline in a cohort of >60,000 clinical specimens. […]
# [1] = tTMB quantile ≥25%, unadjusted, unstratified
# [2] = tTMB quantile ≥50% (median), unadjusted, unstratified
# [3] = tTMB quantile ≥75%, unadjusted, unstratified
substance,measurement,setting,value
atezolizumab,association of tTMB with efficacy of atezolizumab compared to docetaxel,PD-L1-unselected 2L+ patients with NSCLC,trend towards an association of tTMB with improved efficacy
same,clinical benefit in patients with low or no PD-L1 expression on TC and IC,long-term follow-up (FIG. 1),can also derive clinical benefit
same,ORR (confirmed per RECIST v1.1) with increasing tTMB,per treatment arm,higher ORR (confirmed per RECIST v1.1) was associated with increased tTMB
same,ORR,BEP (n = 54 atezolizumab vs 38 docetaxel),13%
same,ORR,ITT (n = 144 atezolizumab vs 143 docetaxel),15% vs 15%
same,OS HR (95% CI),BEP (n = 54 vs 38),"0.65 (0.38, 1.12)"
same,PFS HR (95% CI),"BEP (n = 54 vs 38), unadjusted, unstratified","0.98 (0.63, 1.53)"
same,OS HR (95% CI),ITT (n = 144 vs 143),"0.69 (0.49, 0.98)"
same,PFS HR (95% CI),"ITT (n = 144 vs 143), unadjusted, unstratified","0.92 (0.71, 1.20)"
same,OS HR (95% CI),[1],"0.55 (0.29, 1.03)"
same,PFS HR (95% CI),[1],"0.88 (0.52, 1.48)"
same,OS HR (95% CI),[2],"0.48 (0.23, 1.04)"
same,PFS HR (95% CI),[2],"0.49 (0.25, 0.93)"
same,OS HR (95% CI),[3],"0.50 (0.15, 1.67)"
same,PFS HR (95% CI),[3],"0.49 (0.19, 1.30)"
same,ORR,tTMB quantile ≥25%,14%
same,ORR,tTMB quantile ≥50% (median),20%
same,ORR,tTMB quantile ≥75%,20%
